Experimental data from PubChem BioAssay AID328 (DTP/NCI, 2004).
Where “and” joins values, the source holds several entries; their conditions need not be identical. Equal values may be shown once. Inconclusive results and toxic doses are left out. Rule for the calls: active = survival T/C of 150% or more; inactive = T/C below 125% in these data.

Tested on: BDF1 mice, P388 leukemia ip, median survival T/C
Test: NCI In Vivo Anticancer Drug Screen. Data for tumor model P388 Leukemia (intraperitoneal) in B6D2F1 (BDF1) mice
Conditions: endpoint: median survival time, higher = longer survival
Summary of the method: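 Compound-treated tumour-bearing mice were compared with vehicle-treated controls. Survival was recorded, and the value is the treated-group measurement divided by the control-group measurement (T/C).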

[1] = dose: 50.0 mg/kg/injection, schedule: Q01DX009 (ip), vehicle: saline
[2] = dose: 100.0 mg/kg/injection, schedule: Q01DX009 (ip), vehicle: saline
[3] = dose: 50.0 mg/kg/injection, schedule: Q01DX009 (ip), vehicle: saline with Tween-80
[4] = dose: 100.0 mg/kg/injection, schedule: Q01DX009 (ip), vehicle: saline with Tween-80
[5] = dose: 200.0 mg/kg/injection, schedule: Q01DX009 (ip), vehicle: saline with Tween-80
[6] = dose: 200.0 mg/kg/injection, schedule: Q01DX009 (ip), vehicle: saline

Measured: T/C

CCCCCCCCCCCCCCCC(N)=O
inactive: dose: 12.5 mg/kg/injection, schedule: Q01DX009 (ip), vehicle: gum acacia 100 % of control | dose: 50.0 mg/kg/injection, schedule: Q01DX009 (ip), vehicle: gum acacia 91 % of control | dose: 100.0 mg/kg/injection, schedule: Q04DX003 (ip), vehicle: Klucel (hydroxypropylcellulose) (HPC) 86 % of control | dose: 200.0 mg/kg/injection, schedule: Q04DX003 (ip), vehicle: Klucel (hydroxypropylcellulose) (HPC) 90 % of control | dose: 400.0 mg/kg/injection, schedule: Q04DX003 (ip), vehicle: Klucel (hydroxypropylcellulose) (HPC) 104 % of control

O=S(=O)(NCCO)c1ccc(Cl)cc1
inactive: dose: 100.0 mg/kg/injection, schedule: Q01DX001 (ip), vehicle: Klucel (hydroxypropylcellulose) (HPC) 100 % of control | dose: 200.0 mg/kg/injection, schedule: Q01DX001 (ip), vehicle: Klucel (hydroxypropylcellulose) (HPC) 100 % of control | dose: 400.0 mg/kg/injection, schedule: Q01DX001 (ip), vehicle: Klucel (hydroxypropylcellulose) (HPC) 100 % of control

CC1CCCCN1CC(Cl)Cl (stereo unspecified)
active: [2] 150 % of control
inactive: [1] 122 % of control | dose: 50.0 mg/kg/injection, schedule: Q04DX003 (ip), vehicle: saline 109 % of control | dose: 100.0 mg/kg/injection, schedule: Q04DX003 (ip), vehicle: saline 104 % of control | dose: 200.0 mg/kg/injection, schedule: Q04DX003 (ip), vehicle: saline 122 % of control

CCCCCCCCCCCCCC(=O)[O][Sn]([CH2]CCC)([CH2]CCC)[O]C(=O)CCCCCCCCCCCCC
inactive: dose: 0.78 mg/kg/injection, schedule: Q04DX003 (ip), vehicle: other 104 % of control | dose: 1.56 mg/kg/injection, schedule: Q04DX003 (ip), vehicle: other 109 % of control | dose: 3.13 mg/kg/injection, schedule: Q04DX003 (ip), vehicle: other 113 % of control

CN(N=O)C(=O)N[C@@H](C=O)[C@@H](O)[C@H](O)[C@H](O)CO
active: dose: 39.0 mg/kg/injection, schedule: Q01DX009 (ip), vehicle: water 161 % of control | dose: 40.0 mg/kg/injection, schedule: Q01DX010 (ip), vehicle: other 154 % of control | dose: 50.0 mg/kg/injection, schedule: Q01DX009 (ip), vehicle: other 171 % of control | dose: 58.0 mg/kg/injection, schedule: Q01DX009 (ip), vehicle: water 157 % of control and 181 % of control | dose: 87.0 mg/kg/injection, schedule: Q01DX009 (ip), vehicle: water 154 % of control and 170 % of control
inactive: dose: 17.0 mg/kg/injection, schedule: Q01DX009 (ip), vehicle: water 118 % of control | dose: 80.0 mg/kg/injection, schedule: Q01DX010 (ip), vehicle: other 118 % of control | dose: 100.0 mg/kg/injection, schedule: Q04DX002 (ip), vehicle: saline 109 % of control | dose: 130.0 mg/kg/injection, schedule: Q01DX009 (ip), vehicle: water 89 % of control | dose: 200.0 mg/kg/injection, schedule: Q04DX002 (ip), vehicle: saline 100 % of control | dose: 400.0 mg/kg/injection, schedule: Q04DX002 (ip), vehicle: saline 109 % of control

N#CC1=C(N)CCC2(C1)c1ccccc1-c1ccccc12
inactive: [3] 103 % of control | [4] 88 % of control | [5] 96 % of control

CN1CCC(C=C2c3ccccc3Sc3ccccc32)C1 (stereo unspecified)
inactive: dose: 6.25 mg/kg/injection, schedule: Q01DX009 (ip), vehicle: saline 99 % of control | dose: 12.5 mg/kg/injection, schedule: Q01DX009 (ip), vehicle: saline 95 % of control | dose: 25.0 mg/kg/injection, schedule: Q01DX009 (ip), vehicle: saline 100 % of control | [1] 101 % of control

CN1C(=O)c2ccccc2CC12c1ccccc1C(=O)N2C (stereo unspecified)
inactive: dose: 50.0 mg/kg/injection, schedule: Q01DX005 (ip), vehicle: saline with Tween-80 86 % of control | dose: 200.0 mg/kg/injection, schedule: Q01DX005 (ip), vehicle: saline with Tween-80 86 % of control

COc1cc2cc(c1Cl)NC(=O)CC(OC(=O)C(C)N(C)C(C)=O)C1(C)OC1C(C)C1CC(O)(NC(=O)O1)C(OC)C=C/C=C(\C)C2 (stereo unspecified)
active: dose: 6.2 micrograms/kg/injection, schedule: Q01DX009 (ip), vehicle: saline + alcohol 170 % of control | dose: 25.0 micrograms/kg/injection, schedule: Q01DX009 (ip), vehicle: saline + alcohol 185 % of control
inactive: dose: 0.1 micrograms/kg/injection, schedule: Q01DX009 (ip), vehicle: saline + alcohol 120 % of control | dose: 0.2 micrograms/kg/injection, schedule: Q01DX009 (ip), vehicle: saline + alcohol 110 % of control | dose: 0.4 micrograms/kg/injection, schedule: Q01DX009 (ip), vehicle: saline + alcohol 115 % of control | dose: 0.8 micrograms/kg/injection, schedule: Q01DX009 (ip), vehicle: saline + alcohol 110 % of control | dose: 12.5 micrograms/kg/injection, schedule: Q01DX009 (ip), vehicle: saline + alcohol 120 % of control | dose: 50.0 micrograms/kg/injection, schedule: Q01DX009 (ip), vehicle: saline + alcohol 120 % of control

Cc1cc(O)c2c(c1)C(c1ccc3cc4c(c(O)c3c1O)C(=O)CC(C)(O)C4)c1cccc(O)c1C2=O (stereo unspecified)
inactive: dose: 0.09 mg/kg/injection, schedule: Q01DX009 (ip), vehicle: olive oil, sesame oil, peanut oil 102 % of control | dose: 0.19 mg/kg/injection, schedule: Q01DX009 (ip), vehicle: olive oil, sesame oil, peanut oil 100 % of control | dose: 0.39 mg/kg/injection, schedule: Q01DX009 (ip), vehicle: olive oil, sesame oil, peanut oil 102 % of control | dose: 0.78 mg/kg/injection, schedule: Q01DX009 (ip), vehicle: olive oil, sesame oil, peanut oil 106 % of control

Nc1nc(=O)n(CC(=O)c2ccco2)cc1F
inactive: [1] 109 % of control | [2] 95 % of control and 100 % of control | [6] 118 % of control

ClC1=C(Cl)C2(Cl)C3C4CC(C5OC45)C3C1(Cl)C2(Cl)Cl (stereo unspecified)
inactive: dose: 3.13 mg/kg/injection, schedule: Q01DX009 (ip), vehicle: suspension in saline 96 % of control

NNC(=S)N/N=C/c1ccc([N+](=O)[O-])s1
inactive: dose: 100.0 mg/kg/injection, schedule: Q01DX009 (ip), vehicle: Klucel (hydroxypropylcellulose) (HPC) 110 % of control | dose: 200.0 mg/kg/injection, schedule: Q01DX009 (ip), vehicle: Klucel (hydroxypropylcellulose) (HPC) 112 % of control

C=C(C)COC(N)=O
inactive: [4] 108 % of control | [5] 104 % of control | dose: 400.0 mg/kg/injection, schedule: Q01DX009 (ip), vehicle: saline with Tween-80 87 % of control

CC1CCC2(OC1)OC1C(O)C3C4CCC5CC(OC6OC(CO)C(OC7OC(CO)C(O)C(OC8OCC(O)C(O)C8O)C7OC7OC(CO)C(O)C(OC8OC(CO)C(O)C(O)C8O)C7O)C(O)C6O)C(O)CC5(C)C4CCC3(C)C1C2C (stereo unspecified)
inactive: dose: 6.25 mg/kg/injection, schedule: Q01DX009 (ip), vehicle: saline with Tween-80 100 % of control | dose: 6.25 mg/kg/injection, schedule: Q04DX003 (ip), vehicle: saline 92 % of control | dose: 12.5 mg/kg/injection, schedule: Q01DX009 (ip), vehicle: saline with Tween-80 95 % of control | dose: 12.5 mg/kg/injection, schedule: Q04DX003 (ip), vehicle: saline 92 % of control | dose: 25.0 mg/kg/injection, schedule: Q01DX009 (ip), vehicle: saline with Tween-80 104 % of control | dose: 25.0 mg/kg/injection, schedule: Q04DX003 (ip), vehicle: saline 96 % of control

Clc1ccc(C(Cl)(Cl)Cl)cc1Cl
inactive: dose: 12.5 mg/kg/injection, schedule: Q01DX009 (ip), vehicle: Klucel (hydroxypropylcellulose) (HPC) 95 % of control | dose: 25.0 mg/kg/injection, schedule: Q01DX009 (ip), vehicle: Klucel (hydroxypropylcellulose) (HPC) 100 % of control | dose: 50.0 mg/kg/injection, schedule: Q01DX009 (ip), vehicle: Klucel (hydroxypropylcellulose) (HPC) 100 % of control

CCn1cnc2c(=S)nc[nH]c21
inactive: dose: 15.6 mg/kg/injection, schedule: Q01DX010 (ip), vehicle: saline 100 % of control and 115 % of control | dose: 31.3 mg/kg/injection, schedule: Q01DX010 (ip), vehicle: saline 90 % of control and 105 % of control | dose: 62.5 mg/kg/injection, schedule: Q01DX010 (ip), vehicle: saline 104 % of control and 115 % of control

CC(C)COC(=O)C1(N)CCCC1
inactive: [1] 100 % of control | dose: 66.0 mg/kg/injection, schedule: Q01DX009 (ip), vehicle: saline with Tween-80 95 % of control and 108 % of control | dose: 150.0 mg/kg/injection, schedule: Q01DX009 (ip), vehicle: saline with Tween-80 108 % of control and 116 % of control | [6] 95 % of control
active: [2] 177 % of control

Clc1ccc(C2CC3CCCCN3O2)cc1 (stereo unspecified)
inactive: [3] 90 % of control | [4] 99 % of control | [5] 90 % of control

CN(C)c1ccc(Nc2c3ccccc3nc3ccccc23)cc1
active: dose: 36.0 mg/kg/injection, schedule: Q01DX010 (ip), vehicle: saline 159 % of control and 172 % of control | dose: 54.0 mg/kg/injection, schedule: Q01DX010 (ip), vehicle: saline 159 % of control and 172 % of control | dose: 80.0 mg/kg/injection, schedule: Q01DX010 (ip), vehicle: saline 213 % of control and 218 % of control | dose: 120.0 mg/kg/injection, schedule: Q01DX010 (ip), vehicle: saline 268 % of control
